The values below come from US7625928B2, “Nitroxide radioprotector formulations and methods of use” (priority 2002, dated 2009).

A short description of this data set: In vitro percutaneous absorption of Tempol after multiple applications of Formulation V, Franz static diffusion cells, 30-minute exposures (Example II). The format is in vitro ADME, human. To be noted: test 3, three applications, result in words.

The structures appear in SMILES notation.

Experimental: The skin was wiped with two dry cotton swabs after each application. Upon completion of the final application and skin wiping, the stratum corneum was removed from the skin. […] Franz static diffusion cells (15 mm diameter orifice, O-ring joint, Crown Bio Scientific, Clinton, N.J.) were mounted on 9-cell manifolds and maintained at a constant temperature of 32° C. by use of re-circulating water baths. […] Each diffusion cell was assembled by placing the excised human abdominal skin from a single donor dermal-side down and then a Teflon® O-ring (which rested in the groove of the donor side, top half, of the diffusion cell. The donor side (top half) of the diffusion cell was then placed on top of the O-ring resting on the skin and held in place by use of a pinch clamp. The joint between the donor and receptor compartments of each cell was wrapped with Parafilm® to prevent evaporation of the receptor solution. […] Air bubbles were dispelled from under the skin. […] The formulation was applied in an alternating fashion to 6 diffusion cells at 0.18 mL of formulation per cell. The diffusion cell sampling port was sealed with […] ® to prevent evaporation. […] If appropriate, the cell was re-dosed with test formulation after removal of the previous dose using two cotton swabs wiped across the skin surface. […]

For the compound `CC1(C)CC(O)CC(C)(C)N1[O]` [Tempol, 4-hydroxy-2,2,6,6-tetramethylpiperidine-1-oxyl], the “third application levels versus levels in the second time point” value is on record as “twice as high”.
